Our source for the IC50 values is patent US10196391B2 (Hoffmann-La Roche Inc., priority 2014, dated 2019).

One test has as its system HBV DNA. Briefly: HBV DNA assay (real-time qPCR) in HepG2.2.15 cells. The test is classed as cell-based. The conditions noted are these: Hepatitis B virus, 144 h, extracellular HBV DNA, 6 days, read-out: IC50 (Anti HBV DNA production activity). As for the experimental part: HepG2.2.15 cells (Acs et al. Proc Natl Acad Sci USA, 84, (1987), 4641-4), a constitutively HBV-expressing cell line were cultured in DMEM+Glutamax-I medium (Invitrogen, Carlsbad, Calif., USA), supplemented with 10% fetal bovine serum (Invitrogen) and G418 (Invitrogen) at a final concentration of 200 mg/L and maintained in 5% CO2 at 37° C.
The assay employs real-time qPCR (TaqMan) to directly measure extracellular HBV DNA copy number. HepG2.2.15 cells were plated in 96-well microtiter plates. Only the interior wells were utilized to reduce “edge effects” observed during cell culture, the exterior wells were filled with complete medium to help minimize sample evaporation. On the following day, the HepG2.2.15 cells were washed and the medium was replaced with complete medium containing various concentrations of a test compound in triplicate. 3TC was used as the positive control, while media alone was added to cells as a negative control (virus control, VC). Three days later, the culture medium was replaced with fresh medium containing the appropriately diluted drug. Six days following the initial administration of the test compound, the cell culture supernatant was collected, treated with pronase and then used in a real-time qPCR/TaqMan assay to determine HBV DNA copy numbers. Antiviral activity was calculated from the reduction in HBV DNA levels (IC50). […]
For orientation: Quantitative PCR measures a nucleic acid by following its amplification.

Another test has as its system HBsAg. In words: HBsAg assay (CLIA) in HepG2.2.15 cells. The following applies: Hepatitis B virus, HepG2.2.15, read-out: IC50 (HBsAg assay). The test is classed as cell-based, HBV. Summed up:
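IC50 taken from dose-response curves as the concentration halving secreted HBsAg relative to DMSO control. Measured by chemiluminescence immunoassay of culture supernatant from constitutively HBV-expressing HepG2.2.15 cells, seeded at 1.5×10^4/well in duplicate and exposed to three-fold serial compound dilutions at 1% final DMSO.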

With `CS(=O)(=O)c1ccc(N2CCc3nc(-c4ccccn4)nc(O)c3C2)cc1` [Example 80, 6-(4-methylsulfonylphenyl)-2-(2-pyridyl)-3,5,7,8-tetrahydropyrido-[4,3-d]pyrimidin-4-one], the values for the IC50 in the test on HBV DNA and in the test with HBsAg were 160 nM and 5940 nM, respectively.
For the compound `N#Cc1cc(F)cc(N2CCc3nc(-c4ncccn4)ncc3C2)c1` [Example 101, 3-fluoro-5-(2-pyrimidin-2-yl-7,8-dihydro-5H-pyrido[4,3-d]pyrimidin-6-yl)benzonitrile], the IC50 with HBsAg came to 674 nM.
Turning to `COc1cc(OC)cc(N2CCc3nc(-c4ncccn4)ncc3C2)c1` [Example 73, 6-(3,5-dimethoxyphenyl)-2-pyrimidin-2-yl-7,8-dihydro-5H-pyrido[4,3-d]pyrimidine], in the test with HBsAg, the IC50 came to 1960 nM.
On the same count and under the same terms, the figure for `O=[N+]([O-])c1ccccc1N1CCc2nc(-c3ccccn3)ncc2C1` [Example 33, 6-(2-nitrophenyl)-2-(2-pyridyl)-7,8-dihydro-5H-pyrido[4,3-d]pyrimidine] is 390 nM; for `COc1ccnc(N2CCc3nc(-c4ccccn4)ncc3C2)c1F` [Example 70, 6-(3-fluoro-4-methoxy-2-pyridyl)-2-(2-pyridyl)-7,8-dihydro-5H-pyrido[4,3-d]pyrimidine] it is 1550 nM.
On the same count and under the same terms, in the case of `COc1cccc(N2CCc3nc(-c4ccccn4)ncc3C2)c1` [Example 92, 6-(3-methoxyphenyl)-2-(2-pyridyl)-7,8-dihydro-5H-pyrido[4,3-d]pyrimidine] it was 2890 nM; in that of `c1ccc(-c2ncc3c(n2)CCN(c2ncccn2)C3)nc1` [Example 37, 2-(2-pyridyl)-6-pyrimidin-2-yl-7,8-dihydro-5H-pyrido[4,3-d]pyrimidine], 4450 nM; in that of `O=C(O)c1ccc(N2CCc3nc(-c4ccccn4)ncc3C2)cc1` [Example 32, 4-[2-(2-pyridyl)-7,8-dihydro-5H-pyrido[4,3-d]pyrimidin-6-yl]benzoic acid], 9750 nM.
Same read-out and setting: in the case of `Fc1cc(N2CCc3nc(-c4ccccn4)ncc3C2)ccc1OCc1ccccc1` [Example 53, 6-(4-benzyloxy-3-fluoro-phenyl)-2-(2-pyridyl)-7,8-dihydro-5H-pyrido[4,3-d]pyrimidine] it was 1560 nM.
Take `COc1cc(F)cc(N2CCc3nc(-c4ncccn4)ncc3C2)c1` [Example 117, 6-(3-fluoro-5-methoxy-phenyl)-2-pyrimidin-2-yl-7,8-dihydro-5H-pyrido[4,3-d]pyrimidine]: the 50% inhibitory concentration (IC50) in the test with HBsAg was determined as 157 nM.
`COc1nc(N2CCc3nc(-c4ccccn4)ncc3C2)ncc1Cl` [Example 68, 6-(5-chloro-4-methoxy-pyrimidin-2-yl)-2-(2-pyridyl)-7,8-dihydro-5H-pyrido[4,3-d]pyrimidine]: the concentration for half-maximal inhibition (IC50) in the test with HBsAg was determined as 1470 nM.
Still for that read-out and setting: the figure for `COc1c(N2CCc3nc(-c4ncccn4)ncc3C2)ccc(F)c1F` [Example 30, 6-(3,4-difluoro-2-methoxy-phenyl)-2-pyrimidin-2-yl-7,8-dihydro-5H-pyrido[4,3-d]pyrimidine] is 9490 nM.
The same measure, in the same setting: in the case of `COCCCOc1ccc(N2CCc3nc(-c4ccccn4)ncc3C2)cc1OC` [Example 44, 6-[3-methoxy-4-(3-methoxypropoxy)phenyl]-2-(2-pyridyl)-7,8-dihydro-5H-pyrido[4,3-d]pyrimidine] it was 18900 nM.
Consider `COc1cc(N2CCc3nc(-c4ccccn4)ncc3C2)cc(F)c1F` [Example 17, 6-(3,4-difluoro-5-methoxy-phenyl)-2-(2-pyridyl)-7,8-dihydro-5H-pyrido[4,3-d]pyrimidine], for which the IC50 in the test with HBsAg was determined as 154 nM.
As to `CNC(=O)c1cc(F)cc(N2CCc3nc(-c4ncccn4)ncc3C2)c1` [Example 103, 3-fluoro-N-methyl-5-(2-pyrimidin-2-yl-7,8-dihydro-5H-pyrido[4,3-d]pyrimidin-6-yl)benzamide], the IC50 in the test with HBsAg is 2770 nM.
In the case of `C/C=C/c1nc(-c2ccccn2)nc2c1CN(c1ccc(S(C)(=O)=O)cc1)CC2` [Example 84], the IC50 in the test on HBsAg came to 8560 nM.
Same read-out and setting: in the case of `COc1nc(-c2ccccn2)nc2c1CN(c1ccc(S(C)(=O)=O)cc1)CC2` [Example 81] it was 11300 nM.
Turning to `COc1cc(N2CCc3nc(-c4ccccn4)ncc3C2)ncc1F` [Example 71, 6-(5-fluoro-4-methoxy-2-pyridyl)-2-(2-pyridyl)-7,8-dihydro-5H-pyrido[4,3-d]pyrimidine], in the test on HBsAg, the IC50 was determined as 330 nM.
On the same count and under the same terms, in the case of `COc1cc(F)nc(N2CCc3nc(-c4ncccn4)ncc3C2)c1` [Example 99, 6-(6-fluoro-4-methoxy-2-pyridyl)-2-pyrimidin-2-yl-7,8-dihydro-5H-pyrido[4,3-d]pyrimidine] it was 100 nM.
As for `Fc1cc(OC(F)(F)F)cc(N2CCc3nc(-c4ncccn4)ncc3C2)c1` [Example 118, 6-[3-fluoro-5-(trifluoromethoxy)phenyl]-2-pyrimidin-2-yl-7,8-dihydro-5H-pyrido[4,3-d]pyrimidine], in the test with HBsAg, the 50% inhibitory concentration (IC50) was determined as 4980 nM.
Take `CN(C)S(=O)(=O)c1ccc(N2CCc3nc(-c4ccccn4)ncc3C2)cc1` [Example 9, N,N-dimethyl-4-[2-(2-pyridyl)-7,8-dihydro-5H-pyrido[4,3-d]pyrimidin-6-yl]benzenesulfonamide]: the IC50 in the test with HBsAg stood at 16900 nM.
The same measure, in the same setting: the figure for `COc1cc(Cl)cc(N2CCc3nc(-c4ncccn4)ncc3C2)c1` [Example 98, 6-(3-chloro-5-methoxy-phenyl)-2-pyrimidin-2-yl-7,8-dihydro-5H-pyrido[4,3-d]pyrimidine] is 268 nM.
Same read-out and setting: in the case of `CNS(=O)(=O)c1ccc(N2CCc3nc(-c4ccccn4)ncc3C2)cc1` [Example 8, N-methyl-4-[2-(2-pyridyl)-7,8-dihydro-5H-pyrido[4,3-d]pyrimidin-6-yl]benzenesulfonamide] it was 4180 nM; in that of `COc1ccc(N2CCc3nc(-c4ccccn4)ncc3C2)c(F)c1F` [Example 61, 6-(2,3-difluoro-4-methoxy-phenyl)-2-(2-pyridyl)-7,8-dihydro-5H-pyrido[4,3-d]pyrimidine], 3030 nM; in that of `NC(=O)c1cc(F)cc(N2CCc3nc(-c4ncccn4)ncc3C2)c1` [Example 105, 3-fluoro-5-(2-pyrimidin-2-yl-7,8-dihydro-5H-pyrido[4,3-d]pyrimidin-6-yl)benzamide], 18100 nM.
Take `OCCOc1cc(N2CCc3nc(-c4ccccn4)ncc3C2)cc(F)c1F` [Example 94, 2-[2,3-difluoro-5-[2-(2-pyridyl)-7,8-dihydro-5H-pyrido[4,3-d]pyrimidin-6-yl]phenoxy]ethanol]: the half-maximal inhibitory concentration (IC50) in the test on HBsAg worked out at 660 nM.
As to `COc1ccc2ccc(N3CCc4nc(-c5ncccn5)ncc4C3)cc2n1` [Example 75, 6-(2-methoxy-7-quinolyl)-2-pyrimidin-2-yl-7,8-dihydro-5H-pyrido[4,3-d]pyrimidine], the IC50 with HBsAg is 2020 nM.
The same measure, in the same setting: in the case of `COc1cc(N2CCc3nc(-c4ncccn4)ncc3C2)cc(F)c1F` [Example 26, 6-(3,4-difluoro-5-methoxy-phenyl)-2-pyrimidin-2-yl-7,8-dihydro-5H-pyrido[4,3-d]pyrimidine] it was 61 nM; in that of `CCCOc1cc(N2CCc3nc(-c4ccccn4)ncc3C2)cc(F)c1F` [Example 22, 6-(3,4-difluoro-5-propoxy-phenyl)-2-(2-pyridyl)-7,8-dihydro-5H-pyrido[4,3-d]pyrimidine], 750 nM.

As a reminder, the IC50 is the midpoint of a concentration-inhibition curve.
